Test [1] has as its target T1, RORγ ligand binding domain (Homo sapiens, UniProt P51449). The test is described as follows: RORγ radioligand competition binding assay (SPA). As to conditions: competition with tritiated 2-(4-(ethylsulfonyl)phenyl)-N-(4-(2-(methoxymethyl)phenyl)thiophen-2-yl)acetamide (25 nM), hRORγ LBD. From the text: RORγ Radioligand Competition Binding Assay The aim of this assay is to identify compounds which bind to the RORγ ligand binding domain, by competing with tritiated 2-(4-(ethylsulfonyl)phenyl)-N-(4-(2-(methoxymethyl)phenyl)thiophen-2-yl)acetamide. Human RORγ (Ligand Binding Domain (RORγ LBD) was expressed in E. coli (BL21DE3 Star) as a fusion protein: N-6×HN-Avi-GST-TCS-hRORγ LBD (S258-K518) subcloned into pET24a(+). The LBD (258-518) is underlined in the protein sequence: The scintillation proximity assay (SPA) was run in white polystyrene flat-bottom 384-well plates (Greiner, cat. No. 781075). Assays were carried out in 40 μl reaction volumes. Various concentrations of test ligands in 0.4 microlitres of DMSO were added to assay plates using an acoustic liquid dispenser. 4 nM purified N-(HN)6-GST-TCS-hRORγ (258-518) was mixed with 40 micrograms Yttrium oxide (YOx) glutathione SPA imaging beads in assay buffer (20 mM Tris, 150 mM NaCl, 10% Glycerol, 0.25% CHAPS, 1 mM TCEP) prior to adding 30 microlitres to test ligands. Assay plates were incubated for one hour at room temperature before adding 10 microlitres tritiated 2-(4-(ethylsulfonyl)phenyl)-N-(4-(2-(methoxymethyl)phenyl)thiophen-2-yl)acetamide to test plates in assay buffer (final concentration, 25 nM). Test plates were incubated for 16 hours and read using a LEADseeker Multimodality imaging instrument. The raw data was analysed and IC50 and Ki values for the compounds were calculated using Genedata Screener software. Raw data was transformed to % effect using equation 1: Compound % effect=100*[(X−min)/(max−min)], where X represents the normalized value for the compound based on the Min (vehicle) and Max (reference compound) inhibition controls. The concentration of test ligand that inhibited radioligand binding by 50% (i.e., the IC50) was calculated by plotting the % effect versus test ligand concentration and fitting the data using the Genedata Screener Smart fit algorithm. Ki is calculated from the IC50 value using the equation Ki=IC50/1+[L]/Kd) where [L]=25 nmol/L and Kd=17 nmol/L
Background: In a radioligand displacement assay an active substance lowers the binding of a labelled ligand.

The next test relates to human TH17 cells. Kind of test: Inhibition of IL-17 release from human TH17 cells. In kind it is cell-based. Conditions: 96 h; isolated human TH17 cells cultured 4 days, IL-17A in supernatant by HTRF; read-out: pIC50 IL-17 release (converted). An excerpt:
Inhibition of IL-17 Release from Human TH17 Cells
This test is designed to screen compounds for their inhibitory effect on the release of IL-17 from isolated and cultured human TH17 cells.
Peripheral blood mononuclear cells (PBMC) were isolated from heparin treated human whole blood from healthy donors by density gradient centrifugation. TH17 cells (CD4+CXCR3−CCR6+) were enriched using a human TH17 Cell Enrichment Kit (Stemcell Technologies) according to the manufacturer's protocol. The isolated TH17 cells were activated with aCD3aCD28 beads (MACS Miltenyi) and cultured in X-Vivo15 medium (Lonza) supplemented with L-glutamine, β-mercaptoethanol and a cytokine cocktail consisting of; IL-2, IL-23, IL-1β, IL-6, TGF-β. Cells were seeded at 8000 cells/well in a 384-plate (Corning, #3707) in the presence of compounds or DMSO and cultured for 4 days (37° C., 5% CO2). On day 4 supernatants were collected and IL-17A was measured using a Human IL-17 HTRF Assay kit (Cisbio Bioassays) according to the manufacturer's protocol. The IC50 values for the tested compounds was calculated using Genedata Screener® software (Genedata) using the following calculation method; Compound % effect=100*[(X−min)/(max−min)], where X represents the normalized value for the compound based on the Min (DMSO) and Max (compound 3-(1,3-benzodioxol-5-yl)-1-(3,5-dimethylpiperidin-1-yl)-3-(2-hydroxy-4,6-dimethoxyphenyl)propan-1-one at 10 μM, described in J. R. Hu et al. ACS Med. Chem. Lett. 2013, 4, 79-84) inhibition controls. Results
(In TR-FRET formats the signal depends on donor and acceptor labels being close together.)

The target of test [2] is T1, RORγ ligand binding domain. Kind of test: RORγ co-factor recruitment assay (FRET). In kind it is biochemical. Also noted: made in house; host or cells: E. coli BL21DE3 Star. Conditions: inhibition of recruitment of SRC-1 peptide (NCOA1_677-700) to hRORγ LBD, HTRF read-out. An excerpt:
RORγ Co-Factor Recruitment Assay A high throughput coactivator binding assay for the identification of inverse agonists of the recruitment of peptide SRC-1 (NCOA1_677-_700) to the RORγ ligand binding domain was established. The ligand binding domain (LBD) of human RORγ was expressed in E. coli (BL21DE3 Star) as a fusion protein: N-6×HN-MBP-Avi-TCS-hRORγLBD(P260-K518) subcloned into pET24a(+). The LBD (P260-K518) is underlined in the protein sequence: The assay was run in black 384 well plates (Greiner cat no: 784900). Various concentrations of test ligands in 0.1 microlitres DMSO were dispensed to assay plates using an Echo acoustic dispenser. Two pre-mixes were prepared and incubated for 1 h at room temp in the dark. Pre-mix 1 comprised 100 nM Protein (Biotinylated HN-Avi-MBP-TCS-hRORγ (258-518)) and 60 nM Streptavidin APC in assay buffer, 50 mM MOPS pH7.4, 50 mM KF, 0.003% (w/v) CHAPS, 10 mM DTT and 0.01% (w/v) BSA and pre-mix 2 comprised 160 nM biotinylated SRC-1 peptide (NCOA1-677-700) and 20 nM Europium-W8044 labelled Streptavidin in assay buffer. Five microlitres of pre-mix 2 was dispensed to assay plates containing 0.1 microlitres of test compound and was incubated for 15 min prior to adding five microlitres of pre-mix 1. Plates were incubated at rt for 1 hour in the dark, prior to reading in a Pherastar multi-mode plate reader using HTRF filter set (ex 320, em 612 and 665). The FRET signal at 665 nm was divided by the signal at 612 nm and multiplied by 10,000 to generate a signal ratio value for each well. The raw data was transformed to % effect using the equation: Compound % effect=100*[(X−min)/(max−min)], where X represents the normalized value for the compound based on the Min (vehicle) and Max (reference compound) inhibition control. The concentration of test ligand that inhibited the activity by 50% (i.e., the IC50) was calculated by plotting the % effect versus test ligand concentration and fitting the data using the Genedata Screener Smart fit algorithm.

As to `CC(=O)N1Cc2cc(S(C)(=O)=O)ccc2C1C(=O)Nc1ccc(C(C#N)(C(F)(F)F)C(F)(F)F)cc1` (stereo not drawn) [Example 2, 2-Acetyl-N-[4-(2-cyano-1,1,1,3,3,3-hexafluoropropan-2-yl)phenyl]-5-(methylsulfonyl)-2,3-dihydro-1H-isoindole-1-carboxamide], the IC50 in test [1] is 15.8 nM; in the test on human TH17 cells, 10 nM; in test [2], 126 nM.

Turning to `CC(=O)N1Cc2cc(S(C)(=O)=O)ccc2C1C(=O)Nc1ccc(C(CC(=O)NC2CC2)(C(F)(F)F)C(F)(F)F)cc1` (stereo not drawn) [Example 38, 2-Acetyl-N-{4-[4-(cyclopropylamino)-1,1,1-trifluoro-4-oxo-2-(trifluoromethyl)butan-2-yl]phenyl}-5-(methylsulfonyl)-2,3-dihydro-1H-isoindole-1-carboxamide], the IC50 is 794 nM in test [1], 1000 nM in the test with human TH17 cells and 631 nM in test [2].

Turning to `CC(=O)N1Cc2cc(S(C)(=O)=O)ccc2C1C(=O)Nc1ccc(C(NC2COC2)(C(F)(F)F)C(F)(F)F)cc1` (stereo not drawn) [Example 19, 2-Acetyl-N-{4-[1,1,1,3,3,3-hexafluoro-2-(oxetan-3-ylamino)propan-2-yl]phenyl}-5-(methylsulfonyl)-2,3-dihydro-1H-isoindole-1-carboxamide], the IC50 in test [1] is 126 nM; in the test with human TH17 cells, 50.1 nM; in test [2], 100 nM.

With `COCCNC(c1ccc(NC(=O)C2c3ccc(S(C)(=O)=O)cc3CN2C(C)=O)cc1)(C(F)(F)F)C(F)(F)F` (stereo not drawn) [Example 17, 2-Acetyl-N-(4-{1,1,1,3,3,3-hexafluoro-2-[(2-methoxyethyl)amino]propan-2-yl}phenyl)-5-(methylsulfonyl)-2,3-dihydro-1H-isoindole-1-carboxamide], the values for the IC50 (in test [1]; in the test with human TH17 cells; in test [2]) were 31.6 nM, 20 nM and 100 nM, respectively.

For the compound `CC(=O)N1Cc2cc(S(C)(=O)=O)ccc2C1C(=O)Nc1ccc(C(NCCCS(C)(=O)=O)(C(F)(F)F)C(F)(F)F)cc1` (stereo not drawn) [Example 22, 2-Acetyl-N-[4-(1,1,1,3,3,3-hexafluoro-2-{[3-(methylsulfonyl)propyl]amino}propan-2-yl)phenyl]-5-(methylsulfonyl)-2,3-dihydro-1H-isoindole-1-carboxamide], the IC50 in test [1] is 1000 nM; in the test on human TH17 cells it was 794 nM; in test [2], 1000 nM.

For `CC(=O)NCCC(c1ccc(NC(=O)C2c3ccc(S(C)(=O)=O)cc3CN2C(C)=O)cc1)(C(F)(F)F)C(F)(F)F` (stereo not drawn) [Example 45, 2-Acetyl-N-{4-[4-(acetylamino)-1,1,1-trifluoro-2-(trifluoromethyl)butan-2-yl]phenyl}-5-(methylsulfonyl)-2,3-dihydro-1H-isoindole-1-carboxamide], the IC50 was 794 nM in test [1], 3160 nM with human TH17 cells and 200 nM in test [2].

For the compound `CNC(=O)N1Cc2cc(S(C)(=O)=O)ccc2C1C(=O)Nc1ccc(C(C#N)(C(F)(F)F)C(F)(F)F)cc1` (stereo not drawn) [Example 4, N^1-[4-(2-Cyano-1,1,1,3,3,3-hexafluoropropan-2-yl)phenyl]-N^2-methyl-5-(methylsulfonyl)-1,3-dihydro-2H-isoindole-1,2-dicarboxamide], the IC50 was 12.6 nM in test [1], 7.94 nM in the test with human TH17 cells and 63.1 nM in test [2].

As for `CCOC(=O)CC(c1ccc(NC(=O)C2c3ccc(S(C)(=O)=O)cc3CN2C(C)=O)cc1)(C(F)(F)F)C(F)(F)F` (stereo not drawn) [Example 37, Ethyl 3-[4-({[2-acetyl-5-(methylsulfonyl)-2,3-dihydro-1H-isoindol-1-yl]carbonyl}amino)phenyl]-4,4,4-trifluoro-3-(trifluoromethyl)butanoate], the IC50 in test [1] was 15.8 nM; in the test on human TH17 cells, 25.1 nM; in test [2], 100 nM.

For `CC(=O)N1Cc2cc(S(C)(=O)=O)ccc2C1C(=O)Nc1ccc(C(NCCO)(C(F)(F)F)C(F)(F)F)cc1` (stereo not drawn) [Example 21, 2-Acetyl-N-(4-{1,1,1,3,3,3-hexafluoro-2-[(2-hydroxyethyl)amino]propan-2-yl}phenyl)-5-(methylsulfonyl)-2,3-dihydro-1H-isoindole-1-carboxamide], the results for the IC50 (in test [1]; in the test with human TH17 cells; in test [2]) were 316 nM, 100 nM and 126 nM, respectively.

In the case of `CC(=O)N1Cc2cc(S(C)(=O)=O)ccc2C1C(=O)Nc1ccc(C(CC(=O)N(C)C)(C(F)(F)F)C(F)(F)F)cc1` (stereo not drawn) [Example 42, 2-Acetyl-N-{4-[4-(dimethylamino)-1,1,1-trifluoro-4-oxo-2-(trifluoromethyl)butan-2-yl]phenyl}-5-(methylsulfonyl)-2,3-dihydro-1H-isoindole-1-carboxamide], the IC50 in test [1] is 794 nM; with human TH17 cells, 794 nM; in test [2] it was 316 nM.

For `CC(=O)N1Cc2cc(S(C)(=O)=O)ccc2C1C(=O)Nc1ccc(C(CC#N)(C(F)(F)F)C(F)(F)F)cc1` (stereo not drawn) [Example 36, 2-Acetyl-N-{4-[2-(cyanomethyl)-1,1,1,3,3,3-hexafluoropropan-2-yl]phenyl}-5-(methylsulfonyl)-2,3-dihydro-1H-isoindole-1-carboxamide], the results for the IC50 (in test [1]; with human TH17 cells; in test [2]) were 158 nM, 63.1 nM and 100 nM, respectively.

Take `CC(=O)N1Cc2cc(S(C)(=O)=O)ccc2C1C(=O)Nc1ccc(C(c2nnn(C)n2)(C(F)(F)F)C(F)(F)F)cc1` (stereo not drawn) [Example 30, 2-Acetyl-N-{4-[1,1,1,3,3,3-hexafluoro-2-(2-methyl-2H-tetrazol-5-yl)propan-2-yl]phenyl}-5-(methylsulfonyl)-2,3-dihydro-1H-isoindole-1-carboxamide]: the IC50 in test [1] was 39.8 nM; in the test with human TH17 cells it was 25.1 nM; in test [2], 126 nM.

Source of the values: US11034654B2, “2,3-dihydroisoindole-1-carboxamides useful as ROR-gamma modulators” (AstraZeneca AB, priority 2017, dated 2021).
